In the supplement of paper PMC10307832:

Tests used:
Experiment in all cases: relative viability (nuclei count vs DMSO), 5 days (fraction); higher = more cells survive
CAL-12T = system: CAL-12T
Summary of the method: (§1)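 Lung cancer cell lines in 1536-well plates were dosed by pin tool the day after seeding, either with one drug alone or with a fixed anchor-drug dose plus five library-drug doses (not always all listed) in √10 steps. After 5 days, cells were fixed and their nuclei stained in one step (final 0.05% Triton X-100, 1% formaldehyde, 1 ug/ml Hoechst), then counted on 4× images. Relative viability is the nuclei count in treated wells divided by that in vehicle wells. Values are medians of duplicate plates.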

HOP-62 = system: HOP-62
Summary of the method: as §1

NCI-H2009 = system: NCI-H2009
Summary of the method: as §1

NCI-H727 = system: NCI-H727
Summary of the method: as §1

COR-L 105 = system: COR-L 105
Summary of the method: as §1

LCLC-97TM1 = system: LCLC-97TM1
Summary of the method: as §1

BEN = system: BEN
Summary of the method: as §1

LC-2-ad = system: LC-2-ad
Summary of the method: as §1

HARA = system: HARA
Summary of the method: as §1

PC-3 [JPC-3] = system: PC-3 [JPC-3]
Summary of the method: as §1

HCC-827 = system: HCC-827
Summary of the method: as §1

LU99A = system: LU99A
Summary of the method: as §1

LXF-289 = system: LXF-289
Summary of the method: as §1

NCI-H2126 = system: NCI-H2126
Summary of the method: as §1

HCC-15 = system: HCC-15
Summary of the method: as §1

HCC-366 = system: HCC-366
Summary of the method: as §1

COR-L23 = system: COR-L23
Summary of the method: as §1

NCI-H1993 = system: NCI-H1993
Summary of the method: as §1

PC-14 = system: PC-14
Summary of the method: as §1

HCC-44 = system: HCC-44
Summary of the method: as §1

NCI-H2087 = system: NCI-H2087
Summary of the method: as §1

SK-MES-1 = system: SK-MES-1
Summary of the method: as §1

Cc1cnc(-c2cnc(NCCNc3ccc(C#N)cn3)nc2-c2ccc(Cl)cc2Cl)[nH]1 + CC(C)C[C@H](NC(=O)[C@H](Cc1ccccc1)NC(=O)c1cnccn1)B(O)O [Bortezomib] (partner 0.002 µM)
relative viability (CAL-12T; first compound 0.253 µM): 0.902
relative viability (CAL-12T; first compound 2.53 µM): 0.975
relative viability (HOP-62; first compound 0.08 µM): 1.18
relative viability (HOP-62; first compound 0.253 µM): 0.772
relative viability (HOP-62; first compound 0.8 µM): 0.875
relative viability (HOP-62; first compound 2.53 µM): 0.907
relative viability (NCI-H2009; first compound 0.08 µM): 1.02
relative viability (NCI-H2009; first compound 0.253 µM): 0.682
relative viability (NCI-H2009; first compound 0.8 µM): 1.07
relative viability (NCI-H2009; first compound 2.53 µM): 0.891
relative viability (NCI-H727; first compound 0.08 µM): 0.877
relative viability (NCI-H727; first compound 0.253 µM): 0.808
relative viability (NCI-H727; first compound 0.8 µM): 0.982
relative viability (NCI-H727; first compound 2.53 µM): 0.889
relative viability (COR-L 105; first compound 0.08 µM): 0.898
relative viability (COR-L 105; first compound 0.253 µM): 0.754
relative viability (COR-L 105; first compound 0.8 µM): 0.62
relative viability (COR-L 105; first compound 2.53 µM): 0.445
relative viability (LCLC-97TM1; first compound 0.08 µM): 0.844
relative viability (LCLC-97TM1; first compound 0.253 µM): 0.647
relative viability (LCLC-97TM1; first compound 0.8 µM): 0.709
relative viability (LCLC-97TM1; first compound 2.53 µM): 0.362
relative viability (BEN; first compound 0.08 µM): 0.623
relative viability (BEN; first compound 0.253 µM): 0.786
relative viability (BEN; first compound 0.8 µM): 0.725
relative viability (BEN; first compound 2.53 µM): 0.797
relative viability (LC-2-ad; first compound 0.08 µM): 1.19
relative viability (LC-2-ad; first compound 0.8 µM): 1.04
relative viability (LC-2-ad; first compound 2.53 µM): 0.855
relative viability (HARA; first compound 0.08 µM): 1.05
relative viability (HARA; first compound 0.253 µM): 1.09
relative viability (HARA; first compound 0.8 µM): 1.08
relative viability (HARA; first compound 2.53 µM): 1.08
relative viability (PC-3 [JPC-3]; first compound 0.08 µM): 0.791
relative viability (PC-3 [JPC-3]; first compound 0.253 µM): 0.818
relative viability (PC-3 [JPC-3]; first compound 0.8 µM): 0.811
relative viability (PC-3 [JPC-3]; first compound 2.53 µM): 0.869
relative viability (HCC-827; first compound 0.08 µM): 1.01
relative viability (HCC-827; first compound 0.8 µM): 0.877
relative viability (HCC-827; first compound 2.53 µM): 1.07
relative viability (LU99A; first compound 0.08 µM): 1.27
relative viability (LU99A; first compound 0.253 µM): 1.12
relative viability (LU99A; first compound 0.8 µM): 1.29
relative viability (LU99A; first compound 2.53 µM): 1.18
relative viability (LXF-289; first compound 0.08 µM): 1.04
relative viability (LXF-289; first compound 0.253 µM): 0.946
relative viability (LXF-289; first compound 0.8 µM): 1.09
relative viability (LXF-289; first compound 2.53 µM): 1.11
relative viability (NCI-H2126; first compound 0.08 µM): 1.09
relative viability (NCI-H2126; first compound 0.253 µM): 1.09
relative viability (NCI-H2126; first compound 0.8 µM): 1.12
relative viability (NCI-H2126; first compound 2.53 µM): 1.15
relative viability (HCC-15; first compound 0.08 µM): 1.01
relative viability (HCC-15; first compound 0.253 µM): 0.575
relative viability (HCC-15; first compound 0.8 µM): 1
relative viability (HCC-15; first compound 2.53 µM): 0.969
relative viability (HCC-366; first compound 0.08 µM): 1.09
relative viability (HCC-366; first compound 0.253 µM): 0.989
relative viability (HCC-366; first compound 0.8 µM): 0.967
relative viability (HCC-366; first compound 2.53 µM): 1.01
relative viability (COR-L23; first compound 0.08 µM): 1.04
relative viability (COR-L23; first compound 0.253 µM): 0.997
relative viability (COR-L23; first compound 0.8 µM): 1.14
relative viability (COR-L23; first compound 2.53 µM): 0.943
relative viability (NCI-H1993; first compound 0.08 µM): 1.23
relative viability (NCI-H1993; first compound 0.253 µM): 1.07
relative viability (NCI-H1993; first compound 0.8 µM): 1.1
relative viability (NCI-H1993; first compound 2.53 µM): 1.26
relative viability (PC-14; first compound 0.08 µM): 0.804
relative viability (PC-14; first compound 0.253 µM): 0.84
relative viability (PC-14; first compound 0.8 µM): 0.82
relative viability (PC-14; first compound 2.53 µM): 0.814
relative viability (HCC-44; first compound 0.08 µM): 0.851
relative viability (HCC-44; first compound 0.253 µM): 0.855
relative viability (HCC-44; first compound 0.8 µM): 0.91
relative viability (HCC-44; first compound 2.53 µM): 0.932
relative viability (NCI-H2087; first compound 0.08 µM): 0.997
relative viability (NCI-H2087; first compound 0.253 µM): 0.683
relative viability (NCI-H2087; first compound 0.8 µM): 0.771
relative viability (NCI-H2087; first compound 2.53 µM): 0.808

Cc1cnc(-c2cnc(NCCNc3ccc(C#N)cn3)nc2-c2ccc(Cl)cc2Cl)[nH]1 + C[C@]1(O)C[C@@H](c2nc(-c3ccc4ccc(-c5ccccc5)nc4c3)c3c(N)nccn32)C1 [Linsitinib] (partner 1 µM)
relative viability (CAL-12T; first compound 0.08 µM): 0.806
relative viability (CAL-12T; first compound 0.253 µM): 0.787
relative viability (CAL-12T; first compound 0.8 µM): 0.841
relative viability (CAL-12T; first compound 2.53 µM): 0.837
relative viability (HOP-62; first compound 0.08 µM): 1.09
relative viability (HOP-62; first compound 0.253 µM): 0.972
relative viability (HOP-62; first compound 0.8 µM): 0.775
relative viability (HOP-62; first compound 2.53 µM): 0.794
relative viability (NCI-H2009; first compound 0.08 µM): 1.21
relative viability (NCI-H2009; first compound 0.253 µM): 1.14
relative viability (NCI-H2009; first compound 0.8 µM): 1.23
relative viability (NCI-H2009; first compound 2.53 µM): 1.1
relative viability (NCI-H727; first compound 0.08 µM): 0.29
relative viability (NCI-H727; first compound 0.253 µM): 0.334
relative viability (NCI-H727; first compound 0.8 µM): 0.295
relative viability (COR-L 105; first compound 0.08 µM): 1
relative viability (COR-L 105; first compound 0.253 µM): 0.897
relative viability (COR-L 105; first compound 0.8 µM): 0.832
relative viability (COR-L 105; first compound 2.53 µM): 0.697
relative viability (LCLC-97TM1; first compound 0.08 µM): 0.206
relative viability (LCLC-97TM1; first compound 0.253 µM): 0.177
relative viability (LCLC-97TM1; first compound 0.8 µM): 0.172
relative viability (LCLC-97TM1; first compound 2.53 µM): 0.208
relative viability (BEN; first compound 0.08 µM): 0.951
relative viability (BEN; first compound 0.253 µM): 0.843
relative viability (BEN; first compound 0.8 µM): 0.994
relative viability (BEN; first compound 2.53 µM): 0.928
relative viability (LC-2-ad; first compound 0.08 µM): 0.905
relative viability (LC-2-ad; first compound 0.8 µM): 0.858
relative viability (LC-2-ad; first compound 2.53 µM): 0.92
relative viability (HARA; first compound 0.08 µM): 1.1
relative viability (HARA; first compound 0.253 µM): 0.847
relative viability (HARA; first compound 0.8 µM): 0.921
relative viability (HARA; first compound 2.53 µM): 0.933
relative viability (PC-3 [JPC-3]; first compound 0.08 µM): 0.93
relative viability (PC-3 [JPC-3]; first compound 0.253 µM): 0.858
relative viability (PC-3 [JPC-3]; first compound 0.8 µM): 0.943
relative viability (PC-3 [JPC-3]; first compound 2.53 µM): 0.964
relative viability (HCC-827; first compound 0.08 µM): 0.963
relative viability (HCC-827; first compound 0.8 µM): 1.01
relative viability (HCC-827; first compound 2.53 µM): 0.955
relative viability (LU99A; first compound 0.08 µM): 0.592
relative viability (LU99A; first compound 0.253 µM): 0.538
relative viability (LU99A; first compound 0.8 µM): 0.5
relative viability (LU99A; first compound 2.53 µM): 0.569
relative viability (LXF-289; first compound 0.08 µM): 0.965
relative viability (LXF-289; first compound 0.253 µM): 0.897
relative viability (LXF-289; first compound 0.8 µM): 1.01
relative viability (LXF-289; first compound 2.53 µM): 0.984
relative viability (NCI-H2126; first compound 0.08 µM): 0.739
relative viability (NCI-H2126; first compound 0.253 µM): 0.726
relative viability (NCI-H2126; first compound 0.8 µM): 0.753
relative viability (NCI-H2126; first compound 2.53 µM): 0.704
relative viability (SK-MES-1; first compound 0.08 µM): 1.2
relative viability (SK-MES-1; first compound 0.253 µM): 1.03
relative viability (SK-MES-1; first compound 0.8 µM): 1.05
relative viability (SK-MES-1; first compound 2.53 µM): 1.04
relative viability (HCC-15; first compound 0.08 µM): 0.897
relative viability (HCC-15; first compound 0.253 µM): 0.811
relative viability (HCC-15; first compound 0.8 µM): 0.8
relative viability (HCC-15; first compound 2.53 µM): 0.835
relative viability (HCC-366; first compound 0.08 µM): 0.694
relative viability (HCC-366; first compound 0.253 µM): 0.557
relative viability (HCC-366; first compound 0.8 µM): 0.608
relative viability (HCC-366; first compound 2.53 µM): 0.28
relative viability (COR-L23; first compound 0.08 µM): 0.814
relative viability (COR-L23; first compound 0.253 µM): 0.833
relative viability (COR-L23; first compound 0.8 µM): 0.929
relative viability (COR-L23; first compound 2.53 µM): 0.962
relative viability (NCI-H1993; first compound 0.08 µM): 0.74
relative viability (NCI-H1993; first compound 0.253 µM): 0.763
relative viability (NCI-H1993; first compound 0.8 µM): 0.701
relative viability (NCI-H1993; first compound 2.53 µM): 0.784
relative viability (PC-14; first compound 0.08 µM): 0.946
relative viability (PC-14; first compound 0.253 µM): 0.896
relative viability (PC-14; first compound 0.8 µM): 0.913
relative viability (PC-14; first compound 2.53 µM): 0.834
relative viability (HCC-44; first compound 0.08 µM): 0.685
relative viability (HCC-44; first compound 0.253 µM): 0.553
relative viability (HCC-44; first compound 0.8 µM): 0.681
relative viability (HCC-44; first compound 2.53 µM): 0.787
relative viability (NCI-H2087; first compound 0.08 µM): 0.907
relative viability (NCI-H2087; first compound 0.253 µM): 0.978
relative viability (NCI-H2087; first compound 0.8 µM): 0.987
relative viability (NCI-H2087; first compound 2.53 µM): 1.02
